Results on five molecules are retold here after patent US20100093738A1, “Fungicidal Compounds and Fungicidal Compositions” (BASF SE, priority 2006, published 2010).

Assay [1] has as its system Botrytis cinerea. The assay can be described thus: Activity against the gray mold pathogen Botrytis cinerea in the microtiter test. The class given is cell-based. Particulars: 168 h, single active compound, day 7, read-out: Observed activity (%); for inhibition at 1 ppm: conc. 1 ppm, efficacy in % of untreated control.
Assay [2] deals with Pyricularia oryzae. Description: microbe, parasite or virus in culture. The format is cell-based. To be noted: for inhibition at 0.25 ppm: Pyricularia oryzae, 168 h, read-out: Observed activity (%).

For the molecule `COC(=O)N(OC)c1ccccc1COc1ccn(-c2ccc(Cl)cc2)n1` [II.1, pyraclostrobin], the inhibition at 1 ppm in assay [1] was 19%.

On to `Cc1cc(C2CC2)nc(Nc2ccccc2)n1` [II.2, cyprodinil], for which the inhibition at 0.063 ppm in assay [1] (conc. 0.063 ppm) was 72%. Further, in assay [2], the inhibition at 0.25 ppm came out at 63%.

For `O=C(Nc1ccccc1-c1ccc(Cl)cc1)c1cccnc1Cl` [II.3, boscalid], the inhibition at 1 ppm in assay [1] was found to be 58%.

In the case of `CC(C1CC1)C(O)(Cn1cncn1)c1ccc(Cl)cc1` (stereo not drawn) [II.4, cyproconazol], the inhibition at 0.25 ppm in assay [2] is 0%.

On to `Fc1ccc([C@]2(Cn3cncn3)O[C@H]2c2ccccc2Cl)cc1` [II.5, epoxiconazol], for which the “Observed activity (%)” value in assay [2] (single active compound, conc. 0.25 ppm, day 7) was 4%.
